Reference: ChEMBL document CHEMBL1201862, “PubChem BioAssay data set” (2004)
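All cell lines were grown in 96-well plates and treated with compound for 48 hours. Here, GI50 denotes the concentration required for 50% inhibition of growth.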 Calls of active or inactive are those of the source. No stated cut-off is given here; in the data, active = GI50 up to about 1.1 µM and inactive = higher.

How the values were obtained:
Test in all cases: NCI tumour cell line growth inhibition, 48 h
[1] = system: 786-0
[2] = system: A498
[3] = system: A549
[4] = system: ACHN
[5] = system: BT-549
[6] = system: CAKI-1
[7] = system: CCRF-CEM
[8] = system: COLO 205
[9] = system: DU-145
[10] = system: EKVX
[11] = system: HCC 2998
[12] = system: HCT-116
[13] = system: HCT-15
[14] = system: HL-60
[15] = system: HOP-62
[16] = system: HOP-92
[17] = system: IGROV-1
[18] = system: K562
[19] = system: KM12
[20] = system: LOX IMVI
[21] = system: M14
[22] = system: MCF7
[23] = system: MDA-MB-231
[24] = system: MDA-MB-435
[25] = system: MDA-N
[26] = system: MOLT-4
[27] = system: Malme-3M
[28] = system: NCI-H226
[29] = system: NCI-H23
[30] = system: NCI-H460
[31] = system: NCI-H522
[32] = system: NCI/ADR-RES
[33] = system: OVCAR-3
[34] = system: OVCAR-4
[35] = system: OVCAR-5
[36] = system: OVCAR-8
[37] = system: PC-3
[38] = system: RPMI-8226
[39] = system: RXF 393
[40] = system: SF-268
[41] = system: SF-295
[42] = system: SF-539
[43] = system: SK-MEL-2
[44] = system: SK-MEL-5
[45] = system: SK-OV-3
[46] = system: SN12C
[47] = system: SNB-19
[48] = system: SW-620
[49] = system: T47D
[50] = system: TK-10
[51] = system: U-251
[52] = system: UACC-257
[53] = system: UACC-62
[54] = system: UO-31
[55] = system: HT-29
[56] = system: Hs-578T
[57] = system: SK-MEL-28
[58] = system: SR

For `COC(=O)/C=C1\CCC(C)(C(=O)NS(=O)(=O)c2ccc(C)cc2)C1(C)C` (centres undefined), which GI50 [1] is on record?
The GI50 was > 100 µM (inactive).

What about the GI50 [2] of the same compound?
The GI50 was > 100 µM (inactive).

And the GI50 [3]?
The GI50 was > 100 µM (inactive).

What about the GI50 [4] of the same compound?
Its GI50 is > 100 µM (inactive).

What about the GI50 [5] of the same compound?
Its GI50 is > 100 µM (inactive).

And the GI50 [6]?
The GI50 was > 100 µM (inactive).

What about the GI50 [7] of the same compound?
The GI50 was > 100 µM (inactive).

What about the GI50 [8] of the same compound?
Its GI50 is > 100 µM (inactive).

And the GI50 [9]?
The GI50 was > 100 µM (inactive).

And the GI50 [10]?
Its GI50 is > 100 µM (inactive).

And the GI50 [11]?
The GI50 was > 100 µM (inactive).

What about the GI50 [12] of the same compound?
The GI50 was > 100 µM (inactive).

What about the GI50 [13] of the same compound?
Its GI50 is greater than 100 µM.

And the GI50 [14]?
Its GI50 is > 100 µM (inactive).

And the GI50 [15]?
The GI50 was > 100 µM (inactive).

What about the GI50 [16] of the same compound?
The GI50 was > 100 µM (inactive).

And the GI50 [17]?
Its GI50 is > 100 µM (inactive).

What about the GI50 [18] of the same compound?
Its GI50 is > 100 µM (inactive).

And the GI50 [19]?
Its GI50 is > 100 µM (inactive).

What about the GI50 [20] of the same compound?
Its GI50 is > 100 µM (inactive).

What about the GI50 [21] of the same compound?
Its GI50 is > 100 µM (inactive).

What about the GI50 [22] of the same compound?
The GI50 was > 100 µM (inactive).

What about the GI50 [23] of the same compound?
Its GI50 is > 100 µM (inactive).

What about the GI50 [24] of the same compound?
The GI50 was 4.48 µM (inactive).

And the GI50 [25]?
Its GI50 is > 100 µM (inactive).

What about the GI50 [26] of the same compound?
Its GI50 is > 100 µM (inactive).

And the GI50 [27]?
Its GI50 is > 100 µM (inactive).

What about the GI50 [28] of the same compound?
The GI50 was > 100 µM (inactive).

And the GI50 [29]?
Its GI50 is > 100 µM (inactive).

And the GI50 [30]?
Its GI50 is > 100 µM (inactive).

What about the GI50 [31] of the same compound?
The GI50 was > 100 µM (inactive).

What about the GI50 [32] of the same compound?
Its GI50 is > 100 µM (inactive).

What about the GI50 [33] of the same compound?
The GI50 was > 100 µM (inactive).

And the GI50 [34]?
The GI50 was > 100 µM (inactive).

And the GI50 [35]?
The GI50 was > 100 µM (inactive).

And the GI50 [36]?
Its GI50 is > 100 µM (inactive).

What about the GI50 [37] of the same compound?
The GI50 was > 100 µM (inactive).

What about the GI50 [38] of the same compound?
The GI50 was > 100 µM (inactive).

And the GI50 [39]?
The GI50 was > 100 µM (inactive).

And the GI50 [40]?
The GI50 was > 100 µM (inactive).

What about the GI50 [41] of the same compound?
Its GI50 is > 100 µM (inactive).

And the GI50 [42]?
The GI50 was > 100 µM (inactive).

What about the GI50 [43] of the same compound?
Its GI50 is > 100 µM (inactive).

What about the GI50 [44] of the same compound?
Its GI50 is > 100 µM (inactive).

What about the GI50 [45] of the same compound?
The GI50 was > 100 µM (inactive).

What about the GI50 [46] of the same compound?
The GI50 was > 100 µM (inactive).

And the GI50 [47]?
Its GI50 is > 100 µM (inactive).

And the GI50 [48]?
The GI50 was > 100 µM (inactive).

And the GI50 [49]?
The GI50 was > 100 µM (inactive).

What about the GI50 [50] of the same compound?
Its GI50 is > 100 µM (inactive).

What about the GI50 [51] of the same compound?
The GI50 was > 100 µM (inactive).

And the GI50 [52]?
The GI50 was > 100 µM (inactive).

What about the GI50 [53] of the same compound?
Its GI50 is > 100 µM (inactive).

What about the GI50 [54] of the same compound?
The GI50 was > 100 µM (inactive).

How did the GI50 [5] turn out when `NC1CCC[C@@H](O)[C@H]1O` (some centres undefined) was run?
The GI50 was > 100 µM (inactive).

And the GI50 [7]?
Its GI50 is > 100 µM (inactive).

And the GI50 [8]?
Its GI50 is > 100 µM (inactive).

What about the GI50 [17] of the same compound?
The GI50 was > 100 µM (inactive).

And the GI50 [27]?
The GI50 was > 100 µM (inactive).

What about the GI50 [28] of the same compound?
Its GI50 is > 100 µM (inactive).

And the GI50 [31]?
Its GI50 is > 100 µM (inactive).

What about the GI50 [42] of the same compound?
The GI50 was > 100 µM (inactive).

What about the GI50 [47] of the same compound?
Its GI50 is > 100 µM (inactive).

And the GI50 [54]?
The GI50 was 76.7 µM (inactive).

With `O=C(/C=C/c1ccc(O)c(O)c1)OCc1ccccc1` [BENZYL CAFFEATE] as the compound, how does the GI50 [1] read?
The GI50 was 14.7 µM (inactive).

What about the GI50 [2] of the same compound?
Its GI50 is 20.5 µM (inactive).

What about the GI50 [3] of the same compound?
The GI50 was 19.2 µM (inactive).

What about the GI50 [4] of the same compound?
Its GI50 is 11.8 µM (inactive).

And the GI50 [6]?
The GI50 was 27 µM (inactive).

And the GI50 [8]?
Its GI50 is 22.4 µM (inactive).

What about the GI50 [9] of the same compound?
Its GI50 is 15.1 µM (inactive).

What about the GI50 [10] of the same compound?
The GI50 was 29.7 µM (inactive).

What about the GI50 [11] of the same compound?
The GI50 was 36.6 µM (inactive).

What about the GI50 [12] of the same compound?
The GI50 was 13.4 µM (inactive).

What about the GI50 [13] of the same compound?
Its GI50 is 5.4 µM.

And the GI50 [14]?
The GI50 was 0.938 µM (active).

What about the GI50 [15] of the same compound?
The GI50 was 25.6 µM (inactive).

And the GI50 [16]?
Its GI50 is 16.2 µM (inactive).

And the GI50 [55]?
Its GI50 is 32.3 µM (inactive).

What about the GI50 [56] of the same compound?
Its GI50 is 9.71 µM (inactive).

What about the GI50 [17] of the same compound?
The GI50 was 3.38 µM (inactive).

And the GI50 [18]?
The GI50 was 9.84 µM (inactive).

What about the GI50 [19] of the same compound?
The GI50 was 8.45 µM (inactive).

What about the GI50 [20] of the same compound?
The GI50 was 15.5 µM (inactive).

What about the GI50 [21] of the same compound?
The GI50 was 11.1 µM (inactive).

And the GI50 [22]?
The GI50 was 7.8 µM (inactive).

And the GI50 [23]?
Its GI50 is 21.6 µM (inactive).

What about the GI50 [24] of the same compound?
The GI50 was 6.27 µM (inactive).

What about the GI50 [25] of the same compound?
The GI50 was 4.4 µM (inactive).

What about the GI50 [26] of the same compound?
Its GI50 is 2.28 µM (inactive).

And the GI50 [27]?
Its GI50 is 11.8 µM (inactive).

And the GI50 [28]?
The GI50 was 31.3 µM (inactive).

And the GI50 [29]?
The GI50 was 14.8 µM (inactive).

What about the GI50 [30] of the same compound?
Its GI50 is 12.8 µM (inactive).

What about the GI50 [31] of the same compound?
The GI50 was 0.809 µM (active).

What about the GI50 [32] of the same compound?
The GI50 was 15.8 µM (inactive).

What about the GI50 [33] of the same compound?
The GI50 was 11 µM (inactive).

What about the GI50 [34] of the same compound?
The GI50 was 8.97 µM (inactive).

And the GI50 [35]?
Its GI50 is 29.5 µM (inactive).

And the GI50 [37]?
The GI50 was 18 µM (inactive).

What about the GI50 [38] of the same compound?
Its GI50 is 10.6 µM (inactive).

What about the GI50 [39] of the same compound?
The GI50 was 16.8 µM (inactive).

And the GI50 [40]?
The GI50 was 10.9 µM (inactive).

What about the GI50 [41] of the same compound?
The GI50 was 11.2 µM (inactive).

What about the GI50 [42] of the same compound?
The GI50 was 7.06 µM (inactive).

What about the GI50 [57] of the same compound?
Its GI50 is 6.37 µM (inactive).

What about the GI50 [43] of the same compound?
The GI50 was 13.4 µM (inactive).

And the GI50 [44]?
The GI50 was 9.73 µM (inactive).

What about the GI50 [45] of the same compound?
Its GI50 is 18.3 µM (inactive).

What about the GI50 [46] of the same compound?
The GI50 was 11.6 µM (inactive).

What about the GI50 [47] of the same compound?
Its GI50 is 27.6 µM (inactive).

And the GI50 [58]?
Its GI50 is 3.74 µM (inactive).

And the GI50 [48]?
The GI50 was 17.4 µM (inactive).

And the GI50 [49]?
Its GI50 is 12.1 µM (inactive).

What about the GI50 [50] of the same compound?
Its GI50 is 15.4 µM (inactive).

What about the GI50 [51] of the same compound?
Its GI50 is 14.5 µM (inactive).

What about the GI50 [52] of the same compound?
Its GI50 is 21.2 µM (inactive).

What about the GI50 [53] of the same compound?
The GI50 was 6.58 µM (inactive).

And the GI50 [54]?
Its GI50 is 13.7 µM (inactive).
